How the values were obtained:
fungal tyrosinase = test: Target Binding affinity test for tyrosinase (UPLC-MS of bound ligands)
Source text: It is based on the principle of bringing the ligands and the target into contact in the liquid phase so that the ligands that have the greatest affinity with the target bind to it, elimination of the ligands that are not fixed, separation of the complexes in order to recover the ligands which have been fixed, then quantification of the latter. In a first step of the method, the extract and the target are mixed. The compounds of the extract compete for access to the binding sites of the target. The strongest compounds displace the weakest and are retained more effectively by the target. […] A reference sample was also prepared by diluting the sample to be analyzed 10-fold in a solution of water and a quarter of the volume of acetonitrile. […] Pre-conditioning step-Wells with a filtering membrane were pre-conditioned with a volume of 500 μL of an 85% solution of ammonium acetate and 15% of ethanol which was passed through the membrane by centrifuging at 14000 g for 60 seconds. 2. […] 3. Washing step-The mixture of the enzyme and the sample to be analyzed was deposited in a well that had been pre-conditioned in the pre-conditioning step, then centrifuged at 14000 g until most of the solvent had been eliminated. […] This procedure was repeated three times and eliminated all of the compounds that were not bound to the enzyme. 4. Separation step-The enzyme-ligand complexes retained in the filter were re-suspended in a volume of 10 μL of ultra-pure water, then mixed with a volume of 40 μL of acetonitrile in order to denature and precipitate the enzyme and, at the same time, to liberate the ligands. The mixture was centrifuged at 21000 g for 10 min in order to separate the precipitate from the supernatant. 5. Analysis step-Said supernatant was analyzed by liquid phase chromatography coupled to a mass spectrometer, also known by the acronym UPLC-MS. The reference sample was also analyzed in the same manner, using the same analytical conditions. The UPLC-MS analysis was carried out in accordance with the protocol described in Example 1. The chromatograms obtained are presented in FIGS. 3A and 3B and represent a signal intensity as a function of retention time in a column. […] Each peak is associated with one of the ligands present in the analyzed extract. The quantity associated with each ligand corresponds to the area of the peak. […] For each ligand, an affinity ratio, RACEi, was calculated as follows: [formula] where: NF is a normalization factor; […] the intensity of the analytical signal for the ligand CEi in the reference sample; ISeq,REF is the intensity of the analytical signal for the reference ligand REF (here, moracenin B) in the reference sample; […] the intensity of the analytical signal for the ligand CEi in the treated solution (the sample to be analyzed after steps 2 to 4 for binding and separation of the ligands) for the detached ligands; ISTB,REF is the intensity of the analytical signal for the reference ligand REF (here, moracenin B) in the treated solution (the sample to be analyzed after steps 2 to 4 for binding and separation of the ligands) for the detached ligands; RA, CEi is the relative affinity ratio (RA), representing an affinity of the ligand CEi for the target. The value of the ratio increases with affinity.

[1] = test system: collagenase obtained from Clostridium Histolyticum; test: Target Binding affinity test for collagenase; details: ligands in non-stimulated M. alba root extract; moracenin B = reference ligand
Protocol: A root extract of Morus alba was prepared in accordance with the protocol described in Example 2.1. The Target Binding® method used was that of Example 2.3 which is described in patent application FR 1 670 545. The experimental protocol was as follows:
The target, a 6.25 mg/mL solution of collagenase obtained from Clostridium histolyticum, was prepared by dissolving lyophilized enzyme powder in 50 mM saline phosphate buffer with a pH of 7.5. The sample to be analyzed corresponded to the supernatant of the root extract obtained in accordance with Example 2.1. It could be centrifuged once again before use, at 21000 g for 15 min, in order to remove any traces of solid particles. A reference sample was also prepared by diluting the sample to be analyzed 10-fold in a solution of water and a quarter of the volume of acetonitrile.
1. Preconditioning step—Wells with a filtering membrane were preconditioned with a volume of 500 μL of a saline phosphate buffer which was passed through the membrane by centrifuging at 14000 g for 60 seconds.
2. Binding step—A volume of 92.5 μL of the solution obtained from the pretreatment step was mixed with 7.5 μL of the sample to be analyzed for 10 min in a plastic Eppendorf tube.
3. Washing step—The mixture of the enzyme and the sample to be analyzed was deposited in a well that had been preconditioned in the preconditioning step, then centrifuged at 14000 g until most of the solvent had been eliminated. The enzyme-ligand complexes remained on the surface of the filter membrane, then were re-suspended in a volume of 100 μL of the same saline phosphate buffer solution and centrifuged at 14000 g until the solvent had been eliminated. This procedure was repeated three times and eliminated all of the compounds that were not bound to the enzyme. 4. Separation step—The enzyme-ligand complexes retained in the filter were re-suspended in a volume of 10 μL of ultra-pure water then mixed with a volume of 30 μL of acetonitrile in order to denature and precipitate the enzyme and, at the same time, to liberate the ligands. The mixture was centrifuged at 21000 g for 10 min in order to separate the precipitate from the supernatant. 5. Analysis step—Said supernatant was analyzed by liquid phase chromatography coupled to a mass spectrometer. The reference sample was also analyzed in the same manner, using the same analytical conditions.
(§1) The UPLC-MS analysis was carried out in accordance with the protocol described in Example 1.

hyaluronidase = test: Target Binding affinity test for hyaluronidase; details: ligands in non-stimulated M. alba root extract; moracenin B = reference ligand
Protocol: A root extract of Morus Alba was prepared in accordance with the protocol described in Example 2.1. The Target Binding® method used was that of Example 2.3 which is described in patent application FR 1 670 545. The experimental protocol was as follows: The target, a 5 mg/mL solution of hyaluronidase, was prepared by dissolving powdered lyophilized enzyme in 50 mM sodium phosphate, with a pH of 7.0. The extract corresponded to the supernatant obtained in accordance with Example 2.1. It could optionally be centrifuged once again before use, at 21000 g for 15 min, in order to eliminate the solid particles before use. A reference sample was also prepared by diluting the sample 10-fold in a solution of water and a quarter of the volume of acetonitrile.
1. Preconditioning step—Wells with a filtering membrane were preconditioned with a volume of 500 μL of a solution of 50 mM sodium phosphate, at a pH of 7.0 which was passed through the membrane by centrifuging at 14000 g for 60 seconds.
2. Binding step—The hyaluronidase preparation (5 mg/mL) was mixed with 7.5 μL of the root extract for 5 min in a plastic Eppendorf tube.
3. Washing step—the mixture of the enzyme and the root extract was deposited in a well that had been preconditioned in the preconditioning step, then centrifuged at 14000 g until most of the solvent had been eliminated. The enzyme-ligand complexes remained on the surface of the membrane of the filter then were re-suspended in a volume of 100 μL of the same solution of 50 mM sodium phosphate at a pH of 7.0, and centrifuged at 14000 g until the solvent had been eliminated. This procedure was repeated three times and eliminated all of the compounds that were not bound to the enzyme. 4. Separation step—The enzyme-ligand complexes retained in the filter were re-suspended in a volume of 10 μL of ultra-pure water then mixed with a volume of 40 μL of acetonitrile in order to denature and precipitate the enzyme and at the same time to liberate the ligands. The mixture was centrifuged at 21000 g for 10 min in order to separate the precipitate from the supernatant. 5. Analysis step—Said supernatant was analyzed by liquid phase chromatography coupled to a mass spectrometer, also known by the acronym UPLC-MS. The reference sample was also analyzed in the same manner, using the same analytical conditions.
as §1

[2] = biological target: T1, hyaluronidase originating from bull testicles (type IV-S) (Bos taurus, UniProt Q2YDK3); test: Anti-hyaluronidase inhibiting activity, hyaluronic acid as substrate, precipitation with acidic BSA; type: biochemical
T1 construct: hyaluronidase originating from bull testicles (type IV-S); from tissue; host or cells: bull testicles
T1 sequence (Q2YDK3 36-553): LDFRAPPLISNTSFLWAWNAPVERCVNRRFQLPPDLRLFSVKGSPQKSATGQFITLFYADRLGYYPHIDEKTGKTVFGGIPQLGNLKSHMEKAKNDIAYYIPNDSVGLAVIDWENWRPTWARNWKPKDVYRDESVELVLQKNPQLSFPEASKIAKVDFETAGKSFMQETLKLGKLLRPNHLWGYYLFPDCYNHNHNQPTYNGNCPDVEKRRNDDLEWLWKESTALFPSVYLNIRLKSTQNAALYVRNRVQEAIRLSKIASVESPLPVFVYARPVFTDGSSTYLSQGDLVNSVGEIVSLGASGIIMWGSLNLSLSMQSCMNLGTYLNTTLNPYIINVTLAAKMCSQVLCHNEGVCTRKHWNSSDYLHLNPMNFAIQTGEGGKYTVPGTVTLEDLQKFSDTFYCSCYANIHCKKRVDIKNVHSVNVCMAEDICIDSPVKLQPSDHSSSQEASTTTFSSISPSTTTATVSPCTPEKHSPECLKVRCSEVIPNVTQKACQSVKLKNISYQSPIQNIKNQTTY
Protocol: A root extract of Morus Alba was prepared in accordance with the protocol described in Example 5. Hyaluronidase catalyzes the hydrolysis of hyaluronic acids into monosaccharides, disaccharides and short oligosaccharides. The measurement of the anti-hyaluronidase inhibiting activity was carried out using hyaluronic acid (HA) as a substrate in order to follow its reduction during the enzymatic reaction, the slope of the reduction of the concentration of HA during the reaction being proportional to the enzymatic activity.
The concentration of HA was measured in accordance with the following principle: in the presence of an acidic solution of bovine serum albumin, HA precipitates. Thus, in the case of the presence of HA, a precipitate is formed and in the case of complete hydrolysis of the HA, no precipitate is observed. Thus, the quantity of precipitation is proportion& to the HA content. […]
In order to follow the enzymatic degradation of the HA, a volume of 50 μl of RM was removed every 15 minutes, mixed with a volume of 250 μL of the solution of acidic BSA (acidic solution of bovine serum albumin: 24 mM sodium acetate, 79 mM acetic add and 0.1% (w/v) bovine serum albumin, pH 3.75) then incubated for 10 min at ambient temperature. The quantity of precipitate formed was then measured using a plate reader (diffusion of light at 600 nm). […]

SMILES | Relative affinity (RA) for tyrosinase (fungal tyrosinase; ligands in non-stimulated M. alba root extract, moracenin B = reference ligand) | affinity for tyrosinase compared with the other compounds of the extract (in words) (fungal tyrosinase; peak areas of FIG. 3B / relative affinities) | Relative affinity (RA) for collagenase [1] | Relative affinity (RA) for hyaluronidase (hyaluronidase) | inhibition at 10 µM [2]
CC(C)=CCc1c(O)ccc(C(=O)C2C(c3c(O)cc(-c4cc5ccc(O)c(CC=C(C)C)c5o4)cc3O)C=C(C)CC2c2ccc(O)cc2O)c1O (centres unmarked) [Mulberrofuran T, mulberrofuran T] | 36.2 | greater affinity | 1.1 | 2.7 | –
O=c1c(O)c(-c2ccc(O)c(O)c2)oc2cc(O)cc(O)c12 [quercetin, reference compound] | – | – | – | – | 15.6%
